Source: patent US20230399339A1, “HETEROCYCLIC AMIDE DERIVATIVE, PREPARATION METHOD THEREFOR, AND APPLICATION THEREOF” (SHENZHEN ZHONGGE BIOLOGICAL TECHNOLOGY CO., LTD., priority 2021, published 2023)

Biological target: T1, EP4 receptor (Homo sapiens, UniProt P35408)
T1 construct: expressed in transfected cells; host or cells: Flpin-CHO-EP4 cells (Flp-In CHO host, Chinese hamster ovary)
Assay: Antagonist activity against EP4 receptor by cAMP assay
Assay type: cell-based
Conditions: Flpin-CHO-EP4 cells, PGE2-stimulated cAMP; initial concentration 50 nM, dilution times 4
Method: (a) Antagonist Activity Against EP4 Receptor by cAMP Assay:
Experiment Methods: Inoculating Flpin-CHO-EP4 cells (8000 cells/well) into a 384-well plate (6007680-50, PE) with an assay buffer (1×HBSS+20 mM HEPES+0.1% BSA+500 μM IBMX). Preparing 8× compound working solution with the assay buffer. Adding 2.5 μL of the 8× compound working solution to each well in the cell plate according to the plate map and incubating at 37° C. for 10 min. Preparing 8×PGE2 (400 nM) with the assay buffer. Adding 2.5 μL of the 8×PGE2 per well in the cell plate and incubating at 37° C. for 30 min. Diluting the Eu-cAMP tracer (1/50) with a lysis buffer and adding 10 μL per well in the test plate. Diluting Ulight-anti-cAMP (1/150) with a lysis buffer and adding 10 μL per well in the test plate. Incubating at room temperature for 1 h. Reading wavelength signal values at 665 nm and 615 nm on the Envision 2105 plate reader.

T1 sequence (P35408 whole entry): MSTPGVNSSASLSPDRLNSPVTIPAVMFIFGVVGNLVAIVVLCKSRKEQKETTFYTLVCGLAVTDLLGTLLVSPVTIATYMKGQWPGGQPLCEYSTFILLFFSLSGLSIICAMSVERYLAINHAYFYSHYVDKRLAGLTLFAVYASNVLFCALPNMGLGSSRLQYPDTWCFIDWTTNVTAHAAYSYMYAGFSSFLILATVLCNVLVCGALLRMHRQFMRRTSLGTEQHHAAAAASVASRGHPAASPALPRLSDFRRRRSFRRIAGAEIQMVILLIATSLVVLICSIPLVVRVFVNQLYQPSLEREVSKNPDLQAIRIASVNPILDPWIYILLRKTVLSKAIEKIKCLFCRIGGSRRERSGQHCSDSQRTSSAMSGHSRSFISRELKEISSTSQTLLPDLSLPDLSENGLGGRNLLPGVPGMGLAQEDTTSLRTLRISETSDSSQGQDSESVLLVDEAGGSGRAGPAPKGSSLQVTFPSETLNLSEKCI

With `Cc1sc2ccn(Cc3ccc(S(F)(F)(F)(F)F)cc3)c2c1C(=O)NC1(c2ccc(C(=O)O)cc2)CC1` [Example 1, 4-(1-{[2-methyl-4-(4-(pentafluorothio)benzyl)-4H-thieno[3,2-b]pyrrole-3-carbonyl]amino}-cyclopropyl)carboxylic acid] the IC50 was 0.122 nM.
For `Cc1sc2ccn(Cc3ccc(C(F)(F)F)cc3)c2c1C(=O)NC1(c2ccc(C(=O)O)cc2)CC1` [Control compound], the IC50 was 0.351 nM.
